Results published in patent US6737383B1, “Herbicidal oxadiazolidines” (priority 1999, dated 2004).

Legend:
purple nutsedge = assay: Test B pre/postemergence purple nutsedge; format: in vivo, Cyperus rotundus
How it was run: (§1)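 Test chemicals in a non-phytotoxic solvent mixture with surfactant were sprayed preemergence onto planted seeds and postemergence onto plants 2 to 18 cm tall (1- to 4-leaf stage). After twelve to sixteen days in a greenhouse, injury was visually rated against untreated controls from 0 (no effect) to 10 (complete control).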

soybean = assay: Test B pre/postemergence soybean; format: in vivo, Glycine max
How it was run: as §1

crabgrass = assay: Test B pre/postemergence crabgrass; format: in vivo, Digitaria sanguinalis
How it was run: as §1

morningglory = assay: Test B pre/postemergence morningglory; format: in vivo, Ipomoea hederacea
How it was run: as §1

corn = assay: Test B pre/postemergence corn; format: in vivo, Zea mays
How it was run: as §1

bedstraw = assay: Test B pre/postemergence bedstraw; format: in vivo, Galium aparine
How it was run: as §1

wild oat = assay: Test B pre/postemergence wild oat; format: in vivo, Avena fatua
How it was run: as §1

pigweed = assay: Test B pre/postemergence pigweed; format: in vivo, Amaranthus retroflexus
How it was run: as §1

velvetleaf = assay: Test B pre/postemergence velvetleaf; format: in vivo, Abutilon theophrasti
How it was run: as §1

wheat = assay: Test B pre/postemergence wheat; format: in vivo, Triticum aestivum
How it was run: as §1

cocklebur = assay: Test B pre/postemergence cocklebur; format: in vivo, Xanthium strumarium
How it was run: as §1

blackgrass = assay: Test B pre/postemergence blackgrass; format: in vivo, Alopecurus myosuroides
How it was run: as §1

rape = assay: Test B pre/postemergence rape; format: in vivo, Brassica napus
How it was run: as §1

surinam grass = assay: Test B pre/postemergence surinam grass; format: in vivo, Brachiaria decumbens
How it was run: as §1

giant foxtail = assay: Test B pre/postemergence giant foxtail; format: in vivo, Setaria faberii
How it was run: as §1

[1] = Postemergence, Rate 125 g/ha, scale 0 to 10, 0 is no effect, 10 is complete control
[2] = Preemergence, Rate 62 g/ha, scale of 0 to 10 where 0 is no effect and 10 is complete control
[3] = Preemergence, Rate 250 g/ha, scale of 0 to 10 where 0 is no effect and 10 is complete control
[4] = Preemergence, Rate 500 g/ha, scale of 0 to 10 where 0 is no effect and 10 is complete control
[5] = Rate 62 g/ha, Postemergence, scale 0 to 10 (0 no effect, 10 complete control)
[6] = Rate 500 g/ha, Postemergence, scale 0 to 10, 0 no effect, 10 complete control
[7] = Rate 250 g/ha, Postemergence, scale of 0 to 10 where 0 is no effect and 10 is complete control

CC(C)N(C(=O)n1oc(=O)n(-c2ccc3ccccc3c2)c1=O)c1ccc(Cl)cc1 [Compound 333]
Plant response rating, Nutsedge (purple nutsedge; [1]): 0
Nutsedge plant response rating (purple nutsedge; [2]): 0
Nutsedge plant response rating (0 to 10 scale) (purple nutsedge; Preemergence, Rate 125 g/ha): 0
Nutsedge plant response rating (purple nutsedge; [3]): 0
Nutsedge plant response rating (purple nutsedge; [4]): 0
Nutsedge plant response rating (purple nutsedge; [5]): 0
Plant response rating, Nutsedge (purple nutsedge; [6]): 0
Plant response rating, Soybean (soybean; [1]): 2
Soybean plant response rating (soybean; [2]): 0
Soybean plant response rating (0 to 10 scale) (soybean; Preemergence, Rate 125 g/ha): 0
Soybean plant response rating (soybean; [3]): 0
Soybean plant response rating (soybean; [4]): 0
Soybean plant response rating (soybean; [5]): 2
Plant response rating, Soybean (soybean; [6]): 4
Plant response rating, Crabgrass (crabgrass; [1]): 0
Crabgrass plant response rating (crabgrass; [2]): 0
Crabgrass plant response rating (0 to 10 scale) (crabgrass; Preemergence, Rate 125 g/ha): 0
Crabgrass plant response rating (crabgrass; [3]): 0
Crabgrass plant response rating (crabgrass; [4]): 3
Crabgrass plant response rating (crabgrass; [5]): 0
Plant response rating, Crabgrass (crabgrass; [6]): 0
Plant response rating, Morningglory (morningglory; [1]): 0
Morningglory plant response rating (morningglory; [2]): 0
Morningglory plant response rating (0 to 10 scale) (morningglory; Preemergence, Rate 125 g/ha): 0
Morningglory plant response rating (morningglory; [3]): 0
Morningglory plant response rating (morningglory; [4]): 0
Morningglory plant response rating (morningglory; [5]): 0
Plant response rating, Morningglory (morningglory; [6]): 0
Plant response rating, Corn (corn; [1]): 0
Corn plant response rating (corn; [2]): 0
Corn plant response rating (0 to 10 scale) (corn; Preemergence, Rate 125 g/ha): 0
Corn plant response rating (corn; [3]): 0
Corn plant response rating (corn; [4]): 0
Corn plant response rating (corn; [5]): 0
Plant response rating, Corn (corn; [6]): 0
Plant response rating, Bedstraw (bedstraw; [1]): 0
Bedstraw plant response rating (bedstraw; [2]): 0
Bedstraw plant response rating (0 to 10 scale) (bedstraw; Preemergence, Rate 125 g/ha): 0
Bedstraw plant response rating (bedstraw; [3]): 0
Bedstraw plant response rating (bedstraw; [4]): 0
Bedstraw plant response rating (bedstraw; [5]): 0
Plant response rating, Bedstraw (bedstraw; [7]): 0
Plant response rating, Bedstraw (bedstraw; [6]): 0
Plant response rating, Wild oats (wild oat; [1]): 0
Wild oats plant response rating (wild oat; [2]): 0
Wild oats plant response rating (0 to 10 scale) (wild oat; Preemergence, Rate 125 g/ha): 0
Wild oats plant response rating (wild oat; [3]): 0
Wild oats plant response rating (wild oat; [4]): 0
Wild oats plant response rating (wild oat; [5]): 0
Plant response rating, Wild oats (wild oat; [6]): 0
Plant response rating, Redroot pigweed (pigweed; [1]): 0
Redroot pigweed plant response rating (pigweed; [2]): 0
Redroot pigweed plant response rating (0 to 10 scale) (pigweed; Preemergence, Rate 125 g/ha): 0
Redroot pigweed plant response rating (pigweed; [3]): 0
Redroot pigweed plant response rating (pigweed; [4]): 0
Redroot pigweed plant response rating (pigweed; [5]): 0
Plant response rating, Redroot pigweed (pigweed; [6]): 0
Plant response rating, Velvetleaf (velvetleaf; [1]): 0
Velvetleaf plant response rating (velvetleaf; [2]): 0
Velvetleaf plant response rating (0 to 10 scale) (velvetleaf; Preemergence, Rate 125 g/ha): 0
Velvetleaf plant response rating (velvetleaf; [3]): 0
Velvetleaf plant response rating (velvetleaf; [4]): 0
Velvetleaf plant response rating (velvetleaf; [5]): 0
Plant response rating, Velvetleaf (velvetleaf; [6]): 0
Plant response rating, Wheat (wheat; [1]): 0
Wheat plant response rating (wheat; [2]): 0
Wheat plant response rating (0 to 10 scale) (wheat; Preemergence, Rate 125 g/ha): 0
Wheat plant response rating (wheat; [3]): 0
Wheat plant response rating (wheat; [4]): 0
Wheat plant response rating (wheat; [5]): 0
Plant response rating, Wheat (wheat; [6]): 0
Plant response rating, Cocklebur (cocklebur; [1]): 0
Cocklebur plant response rating (cocklebur; [2]): 0
Cocklebur plant response rating (0 to 10 scale) (cocklebur; Preemergence, Rate 125 g/ha): 0
Cocklebur plant response rating (cocklebur; [3]): 0
Cocklebur plant response rating (cocklebur; [4]): 0
Cocklebur plant response rating (cocklebur; [5]): 0
Plant response rating, Cocklebur (cocklebur; [6]): 0
Plant response rating, Blackgrass (blackgrass; [1]): 0
Blackgrass plant response rating (blackgrass; [2]): 0
Blackgrass plant response rating (0 to 10 scale) (blackgrass; Preemergence, Rate 125 g/ha): 0
Blackgrass plant response rating (blackgrass; [3]): 0
Blackgrass plant response rating (blackgrass; [4]): 0
Blackgrass plant response rating (blackgrass; [5]): 0
Plant response rating, Blackgrass (blackgrass; [7]): 0
Plant response rating, Blackgrass (blackgrass; [6]): 0
Plant response rating, Rape (rape; [1]): 0
Rape plant response rating (rape; [2]): 0
Rape plant response rating (0 to 10 scale) (rape; Preemergence, Rate 125 g/ha): 0
Rape plant response rating (rape; [3]): 0
Rape plant response rating (rape; [4]): 0
Rape plant response rating (rape; [5]): 0
Plant response rating, Rape (rape; [6]): 0
Plant response rating, B. signalgrass (surinam grass; [1]): 0
B. signalgrass plant response rating (surinam grass; [2]): 0
B. signalgrass plant response rating (0 to 10 scale, 0 is no effect, 10 is complete control) (surinam grass; Preemergence, Rate 125 g/ha): 0
B. signalgrass plant response rating (surinam grass; [3]): 0
B. signalgrass plant response rating (surinam grass; [4]): 0
B. signalgrass plant response rating (surinam grass; [5]): 0
Plant response rating, B. signalgrass (surinam grass; [7]): 0
Plant response rating, B. signalgrass (surinam grass; [6]): 0
Plant response rating, Giant foxtail (giant foxtail; [1]): 0
Giant foxtail plant response rating (giant foxtail; [2]): 0
Giant foxtail plant response rating (0 to 10 scale) (giant foxtail; Preemergence, Rate 125 g/ha): 0
Giant foxtail plant response rating (giant foxtail; [3]): 0
Giant foxtail plant response rating (giant foxtail; [4]): 2
Giant foxtail plant response rating (giant foxtail; [5]): 0
Plant response rating, Giant foxtail (giant foxtail; [6]): 0
